Ki and IC50 data for 14 compounds are collected here from patent publication US7514438B2, “Melanin concentrating hormone receptor antagonist” (Amgen, Inc., priority 2003, dated 2009).

One test addresses T1, human MCH receptor (Homo sapiens, UniProt Q99705).
T1 construct: expressed in transfected cells
The test is described as follows: hMCH FLIPR calcium mobilization assay. It counts as cell-based. The note with it: 100 μM or less list; read-out: Ki in the hMCH FLIPR assay.

Test [1] addresses T2, rat MCH 1 receptor (rMCH1R) (Rattus norvegicus, UniProt P97639).
T2 construct: expressed in transfected cells; host or cells: HEK 293 (membranes)
Briefly: 125I-MCH ligand binding assay, rMCH. The method in brief: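 HEK293 membranes expressing rat or human MCH1R (100 µg tissue) were incubated for 90 min at 30 °C with 0.2 nM 125I-native-MCH and test compound in HEPES/MgCl2/BSA buffer with protease inhibitors, pH 7.4. Non-specific binding used 1 µM cold MCH. Filter-bound radioactivity gave IC50 by nonlinear regression.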

Test [2] deals with T3, human MCH 1 receptor (hMCH1R) (Homo sapiens, UniProt Q99705).
T3 construct: expressed in transfected cells; host or cells: HEK 293 (membranes)
T3 sequence (Q99705 whole entry): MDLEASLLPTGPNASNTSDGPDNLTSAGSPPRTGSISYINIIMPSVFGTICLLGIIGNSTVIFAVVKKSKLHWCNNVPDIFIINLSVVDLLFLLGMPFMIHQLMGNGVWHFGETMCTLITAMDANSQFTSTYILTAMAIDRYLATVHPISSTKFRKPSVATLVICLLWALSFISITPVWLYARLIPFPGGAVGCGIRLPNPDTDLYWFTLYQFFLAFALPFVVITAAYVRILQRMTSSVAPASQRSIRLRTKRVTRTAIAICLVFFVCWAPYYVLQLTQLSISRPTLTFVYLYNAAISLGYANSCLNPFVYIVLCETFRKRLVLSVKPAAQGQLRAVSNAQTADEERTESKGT
The test is described as follows: 125I-MCH ligand binding assay, hMCH. Here is the method:
Human embryonic kidney cells (293 total) expressing either human, rat, or mouse MCH receptor were harvested from 150 mm culture dishes using PBS. Spinning at 1500 rpm for 2 minutes initially pelleted cells. The resulting pellet was then homogenized in 15 mL ice cold sucrose buffer (25 mM HEPES, 0.3 M sucrose, pH 7.4) with a motorized, glass fitted, Teflon® homogenizer. The homogenate was centrifuged at 48,000×g at 4° C. for 10 minutes, resuspended in 15 mL assay buffer (25 mM HEPES, 10 mM mgCl2, 0.2% BSA, 0.1 mg/mL STI, 0.1 mg/mL Pefabloc®, 1 μM Phosphoramidon, pH 7.4) with a Tissue-Tearor® (Biospec Products) and centrifuged again at 48,000×g for 10 minutes. The pellet was homogenized for a third time in 15 mL assay buffer using the Tissue-Tearor® and again centrifuged at 48,000×g for 10 minutes. The resulting pellet was resuspended in assay buffer at a wet weight concentration of 10-20 mg/mL.
Binding assays were determined as described below using mouse, rat or human MCH 1 receptors (mMCH1R, rMCH1R, and hMCH1R, respectively) expressed in HEK 293; IC50 values were calculated.
Binding assays were performed in 96-well U-bottom plates. Membranes (100 μg tissue) were incubated at 30° C. for 90 minutes in assay buffer with various peptides in the presence of 0.2 nM ^125I native-MCH (Perkin-Elmer Life Sciences, Boston, Mass.) in 100 μL total volume. Non-specific binding was assessed in the presence of 1 μM cold native-MCH. The reaction was terminated by rapid filtration through Unfilter-96 GF/C glass fiber filter plates (FilterMate® 196 Harvester, Packard Instrument Co., Meriden, Conn.) pre-soaked in PBS/0.5% BSA, followed by three washes with 300 μL ice-cold water. Bound radioactivity was determined using a TopCount® microplate scintillation and luminescence counter (Packard Instrument Co., Meriden, Conn.). Nonlinear regression analyses of drug concentration curves were performed using GraphPad Prism® (GraphPad Software, Inc., San Diego, Calif.).

The next test has as its target rat MCH1 receptor (Rattus norvegicus, UniProt P97639). The test is described as follows: rMCH FLIPR calcium mobilization assay (CHOK1-Gqi cells). The class given is cell-based. On the set-up: expressed in transfected cells; host or cells: CHOK1-Gqi. The procedure:
Pharmacological analyses were conducted using either a HT-PS100 device (Axiom Biotechnologies, San Diego, Calif.), which provides high-resolution dose-response fluorometric measurements of [Ca^++]i mobilization, or using a FLIPR® device (Molecular Devices, Sunnyvale, Calif.).
Materials: Pharmacological analysis was conducted using a FLIPR® device (Molecular Devices, Sunnyvale, Calif.). CHOK1-Gqi cells were stably transfected with the rat MCH1 receptor and maintained under G418 antibiotic pressure. FLIPR® assay buffer consisted of phenol red-free DMEM+2.5 mM probenecid. […]. Test compounds were prepared as 10 mM stocks in 100% DMSO and diluted to a top end working concentration of 10 μM in 96 well black, flat bottom, collagen-I coated plates (Becton Dickinson, Bedford, Mass.).
Methods: CHOK1-Gqi cells stably expressing MCH1R were maintained in Dulbeco's modified Eagle's medium (GIBCO/Life Technologies, Rockville, Md.) supplemented with 2 mM glutamine and 10% dialyzed fetal bovine serum (HyCLone, Logan, Utah) at 37° C., 5% CO2. Cells were harvested by 10′ treatment with Versene (GIBCO/Life Technologies) followed by trituration, washing twice with cold (4° C.) hybridoma medium (Serum/Protein free, with L-glutamine, sodium bicarbonate, MOPS buffer) (Sigma-Aldrich Corp, St. Louis, Mo.) and replated onto 96 well black, flat bottom, collagen-I coated plates to a density of 10,000 cells/well. The cells were then loaded with the fluorescent calcium indicator Fura-2 (Molecular Probes, Eugene, Oreg.) at 1.6 μM for 60′ at room temperature. The loaded cells were then washed twice with 90 μl/well of wash buffer (1×HBSS, 20 mM HEPES, 2.5 mM probenecid).
Receptor-stimulated intracellular calcium responses were detected using FLIPR® by monitoring increases in the Fura-2 fluorescence response.
Test compounds were screened for MCH1R activity in the FLIPR® for both agonist and antagonist action. Agonist mode challenges were conducted at a maximum gradient concentration of 1 μM. Antagonist activity was tested by 10 min pre-incubation of cells at a compound concentration of defined to be 300× the EC50 of MCH (typically 1 μM), with subsequent introduction of MCH at a concentration 5-fold of EC50 as determined in preliminary experiments. […].
Several fixed concentrations of antagonist compounds were prepared in 10-fold increments, and presented to the cells in a gradient of increasing MCH concentration. Values for compound pA2 were calculated by linear regression of MCH EC50s as a function of antagonist concentration.

Setting [3] is: HEK 293 membranes, 0.2 nM 125I native-MCH, 100 μM or less list, read-out: IC50 in the rMCH binding assay.
Setting [4] is: HEK 293 membranes, 0.2 nM 125I native-MCH, 100 μM or less list, read-out: IC50 in the hMCH binding assay.
Where [5] appears, read: CHOK1-Gqi cells, rat MCH1 receptor, 100 μM or less list, read-out: Ki in the rMCH FLIPR assay.
Setting [6] is: HEK 293 membranes, 0.2 nM 125I native-MCH, 100 nM or less list, read-out: IC50 in the rMCH binding assay.

pIC50, pKi: −log10 of the molar value. Read-outs that look alike come from different tables or passages of the source.

T1 sequence (Q99705 whole entry): as above
Chain of rat MCH1 receptor (P97639 whole entry): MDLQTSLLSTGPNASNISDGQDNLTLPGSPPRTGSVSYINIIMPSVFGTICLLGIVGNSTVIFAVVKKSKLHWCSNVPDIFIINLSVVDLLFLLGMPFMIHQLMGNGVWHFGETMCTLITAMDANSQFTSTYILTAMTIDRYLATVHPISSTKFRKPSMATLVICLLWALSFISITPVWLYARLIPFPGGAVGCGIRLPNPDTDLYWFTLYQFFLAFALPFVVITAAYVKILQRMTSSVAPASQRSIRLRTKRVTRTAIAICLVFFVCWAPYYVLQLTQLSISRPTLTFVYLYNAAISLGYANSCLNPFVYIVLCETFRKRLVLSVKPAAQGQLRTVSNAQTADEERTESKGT
T2 sequence (P97639 whole entry): as above

Consider `Cc1cccc(C)c1-n1nnnc1[C@H](c1ccc(-n2ccnc2)cc1)N1CCN(C/C=C/c2ccccc2)CC1` (stereo in doubt) [Compound 135, 1-[[1-(2,6-dimethylphenyl)-1H-tetrazol-5-yl]-(4-imidazol-1-ylphenyl)methyl]-4-(3-phenylallyl)piperazine], for which the negative-log Ki (pKi) at human MCH receptor and on rat MCH1 receptor (setting [5]) was no less than 4.00 in each case. Further, the pIC50 in test [1] (setting [3]) and in test [2] (setting [4]) was no less than 4.00 throughout.

Regarding `Cc1cccc(C)c1-n1nnnc1[C@@H](c1ccc(-n2ccnc2)cc1)N1CCN(C/C=C/c2ccccc2)CC1` (stereo in doubt) [Compound 134, 1-[[1-(2,6-dimethylphenyl)-1H-tetrazol-5-yl]-(4-imidazol-1-ylphenyl)methyl]-4-(3-phenylallyl)piperazine], the pKi at human MCH receptor and at rat MCH1 receptor (setting [5]) was no less than 4.00 in each case. Moreover, the pIC50 is no less than 7.00 in test [1] (setting [6]); no less than 4.00 in test [1] (setting [3]); no less than 7.00 in test [2] (HEK 293 membranes, 0.2 nM 125I native-MCH, 100 nM or less list, read-out: IC50 in the hMCH binding assay); no less than 4.00 in test [2] (setting [4]).

`Cc1cccc(C)c1-n1nnnc1C(c1ccc(-c2ccccc2)cc1)N1CCN(C/C=C/c2ccccc2)CC1` (centres unmarked) [Compound 11, 1-{biphenyl-4-yl-[1-(2,6-dimethyiphenyl)-1H-tetrazol-5-yl]methyl}-4-(3-phenylallyl)piperazine]: the negative-log IC50 (pIC50) is no less than 7.00 in test [1] (setting [6]), no less than 4.00 in test [1] (setting [3]) and no less than 4.00 in test [2] (setting [4]). For the same compound, the pKi was no less than 7.00 on rat MCH1 receptor (CHOK1-Gqi cells, rat MCH1 receptor, 100 nM or less list, read-out: Ki in the rMCH FLIPR assay) and no less than 4.00 at rat MCH1 receptor (setting [5]).

On to `Cc1cccc(C)c1-n1nnnc1[C@H](c1cccc(Oc2ccccc2)c1)N1CCN(C/C=C/c2ccccc2)CC1` (racemic) [Compound 12, 1-[[1-(2,6-dimethyiphenyl)-1H-tetrazol-5-yl]-(3-phenoxyphenyl)methyl]-4-(3-phenylallyl)piperazine], for which the negative logarithm of the IC50 (pIC50) in test [1] (setting [3]) and in test [2] (setting [4]) was no less than 4.00 throughout. Further, the pKi at rat MCH1 receptor (setting [5]) was no less than 4.00.

`Cc1cccc(C)c1-n1nnnc1[C@H](c1ccncc1)N1CCN(C/C=C/c2ccccc2)CC1` (racemic) [Compound 86, 1-{[1-(2,6-dimethylphenyl)-1H-tetrazol-5-yl]pyridin-4-ylmethyl}-4-(3-phenylallyl)piperazine]: the pKi on human MCH receptor and on rat MCH1 receptor (setting [5]) was no less than 4.00 each time. The negative-log IC50 (pIC50) in test [2] (setting [4]) is no less than 4.00.

`Cc1cccc(C)c1-n1nnnc1C1(N2CCN(C/C=C/c3ccccc3)CC2)CCCCC1` [Compound 92, 1-{1-[1-(2,6-dimethylphenyl)-1H-tetrazol-5-yl]cyclohexyl)-4-(3-phenylallyl)piperazine]: the pIC50 in test [1] and in test [2] was no less than 4.00 in each case. At rat MCH1 receptor, the negative-log Ki (pKi) is no less than 4.00.

In the case of `Cc1cccc(C)c1-n1nnnc1[C@H](COCc1ccccc1)N1CCN(C/C=C/c2ccccc2)CC1` (racemic) [Compound 69, 1-{2-benzyloxy-1-[1-(2,6-dimethylphenyl)-1H-tetrazol-5-yl]ethyl}-4-(3-phenylallyl)piperazine], the pIC50 in test [1] (setting [3]) and in test [2] (setting [4]) was no less than 4.00 each time.

`Cc1cccc([C@@H](c2nnnn2-c2c(C)cccc2C)N2CCN(C/C=C/c3ccccc3)CC2)n1` (racemic) [Compound 71, 1-[[1-(2,6-dimethylphenyl)-1H-tetrazol-5-yl]-(6-methylpyridin-2-yl)methyl]-4-(3-phenylallyl)piperazine]: the pIC50 in test [1] (setting [3]) and in test [2] (setting [4]) was no less than 4.00 each time.

Take `CC(C)(C)n1nnnc1[C@H](c1ccccc1)N1CCN(C/C=C/c2ccccc2)CC1` (racemic) [Compound 14, 1-[(1-tert-butyl-1H-tetrazol-s-yl)phenylmethyl]-4-(3-phenylallyl)piperazine]: the negative-log IC50 (pIC50) in test [1] (setting [3]) and in test [2] (setting [4]) was no less than 4.00 in each case.

Regarding `Clc1ccc(Cn2nnnc2[C@H](c2ccccc2)N2CCN(C/C=C/c3ccccc3)CC2)cc1Cl` (racemic) [Compound 30, 1-{[1-(3,4-dichlorobenzyl)-1H-tetrazol-5-yl]phenylmethyl}-4-(3-phenylallyl)piperazine], the negative-log IC50 (pIC50) in test [1] (setting [3]) and in test [2] (setting [4]) was no less than 4.00 in each case.

As to `Cc1cccc(C)c1-n1nnnc1[C@H](c1cccc2c1OCO2)N1CCN(C/C=C/c2ccccc2)CC1` (racemic) [Compound 81, 1-{benzo[1,3]diaxol-4-yl-[1-(2,6-dimethylphenyl)-1H-tetrazol-5-yl]methyl}-4-(3-phenylallyl)piperazine], the pIC50 in test [1] (setting [3]) and in test [2] (setting [4]) was no less than 4.00 throughout.

Regarding `Cc1cccc(C)c1-n1nnnc1[C@H](c1cccc(Oc2cc(Cl)cc(Cl)c2)c1)N1CCN(C/C=C/c2ccccc2)CC1` (racemic) [Compound 87, 1-{[3-(3,5-dichloro-phenoxy)-phenyl]-[1-(2,6-dimethylphenyl)-1H-tetrazol-5-yl]methyl}-4-(3-phenylallyl)piperazine], the pKi on human MCH receptor and at rat MCH1 receptor (setting [5]) was no less than 4.00 throughout. Also, in test [2] (setting [4]), the negative logarithm of the IC50 (pIC50) is no less than 4.00.

In the case of `O=C1CCCN1CCCn1nnnc1[C@H](c1ccccc1)N1CCN(C/C=C/c2ccccc2)CC1` (racemic) [Compound 36, 1-[3-(5-{phenyl-[4-(3-phenylallyl)piperazin-1-yl]methyl}tetrazol-1-yl)propyl]pyrrolidin-2-one], the pIC50 in test [1] (setting [3]) and in test [2] (setting [4]) was no less than 4.00 throughout.

Consider `Cc1cccc(C)c1-n1nnnc1[C@H](c1ccc(C(F)(F)F)cc1)N1CCN(C/C=C/c2ccccc2)CC1` (racemic) [Compound 63, 1-[[1-(2,6-dimethylphenyl)-1H-tetrazol-5-yl]-(4-trifluoromethylphenyl)methyl]-4-(3-phenylallyl)piperazine], for which the pIC50 in test [1] (setting [3]) and in test [2] (setting [4]) was no less than 4.00 each time.
